The source of these data is patent publication US20240228506A1, “RIPK1 INHIBITORS AND METHODS OF USE” (Merck Sharp & Dohme LLC, priority 2021, published 2024).

SMILES strings stand for the structures.

This experiment deals with T1, GST-RIPK1 (recombinant GST-RIPK1 kinase domain (residues 1-327)) (Homo sapiens, UniProt Q13546).
T1 construct: recombinant GST-RIPK1 kinase domain (residues 1-327) enzyme; made in house; host or cells: baculovirus-transfected Sf21 insect cells
T1 sequence (Q13546 1-327): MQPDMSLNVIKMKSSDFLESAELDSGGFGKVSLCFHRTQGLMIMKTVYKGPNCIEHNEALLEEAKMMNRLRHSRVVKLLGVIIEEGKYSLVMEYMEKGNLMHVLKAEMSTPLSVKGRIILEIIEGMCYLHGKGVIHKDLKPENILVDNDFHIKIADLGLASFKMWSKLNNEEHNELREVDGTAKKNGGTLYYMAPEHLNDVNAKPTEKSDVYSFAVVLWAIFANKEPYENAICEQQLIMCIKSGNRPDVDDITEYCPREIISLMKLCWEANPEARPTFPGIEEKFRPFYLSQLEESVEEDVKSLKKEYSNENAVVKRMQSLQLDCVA
The experiment is described as follows: RIPK1-ADP-Glo enzymatic assay. In kind it is biochemical. Conditions: 25 nM GST-RIPK1, 300 μM ATP, 3 μM dephosphorylated-MBP; 30 minutes pre-incubation, 150 minutes reaction; ten-point titration. An outline of the steps: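 Ten-point 1:3 titrations from 100000 nM, 1% DMSO, were preincubated 30 min with 25 nM GST-RIPK1 (1-327) before starting with 300 μM ATP plus 3 μM dephosphorylated MBP; 150 min reaction. ADP-Glo luminescence measured ATP-to-ADP conversion; EC50 by four-parameter sigmoidal regression.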
(In ADP-Glo the light output rises with the ADP produced.)
In general, IC50 refers to the point on the concentration scale where inhibition reaches its midpoint. Consider `CC(C)(C(=O)N1C[C@@H]2C[C@H]1c1cncc(C#Cc3cccnc3)c1O2)C(F)F` [Compound 2-48, 3,3-difluoro-2,2-dimethyl-1-((2S,5S)-9-(pyridin-3-ylethynyl)-2,3-dihydro-2,5-methanopyrido[3,4-f][1,4]oxazepin-4(5H)-yl)propan-1-one], for which the half-inhibitory concentration (IC50) stood at 36 nM.

For `N#Cc1cncc2c1O[C@H]1C[C@@H]2N(C(=O)C2CC3(CCCC3)C2)C1` [Compound 1-45, (2S,5S)-4-(spiro[3.4]octane-2-carbonyl)-2,3,4,5-tetrahydro-2,5-methanopyrido[3,4-f][1,4]oxazepine-9-carbonitrile], the half-inhibitory concentration (IC50) was determined as 330 nM. For `CC(C)(C(=O)N1C[C@@H]2C[C@H]1c1cncc(C#CCCc3ccccc3)c1O2)C(F)F` [Compound 2-110, 3,3-difluoro-2,2-dimethyl-1-((2S,5S)-9-(4-phenylbut-1-yn-1-yl)-2,3-dihydro-2,5-methanopyrido[3,4-f][1,4]oxazepin-4(5H)-yl)propan-1-one], the IC50 turned out to be 197 nM. To `Cc1ncc2c(c1F)O[C@H]1C[C@@H]2N(C(=O)C23CCC(C(F)(F)F)(CC2)C3)C1` [Compound 2-27, ((2S,5S)-9-Fluoro-8-methyl-2,3-dihydro-2,5-methanopyrido[3,4-f][1,4]oxazepin-4(5H)-yl)(4-(trifluoromethyl)bicyclo[2.2.1]heptan-1-yl)methanone] belongs 47 nM; to `N#Cc1cncc2c1O[C@H]1C[C@@H]2N(C(=O)C2(C(F)(F)F)CCCC2)C1` [Compound 1-13, (2S,5S)-4-[1-(trifluoromethyl)cyclopentane-1-carbonyl]-2,3,4,5-tetrahydro-2,5-methanopyrido[3,4-f][1,4]oxazepine-9-carbonitrile], 130 nM; to `N#Cc1cncc2c1O[C@H]1C[C@@H]2N(C(=O)C23CCC(F)(CC2)C3)C1` [Compound 1-7, (2S,5S)-4-(4-fluorobicyclo[2.2.1]heptane-1-carbonyl)-2,3,4,5-tetrahydro-2,5-methanopyrido[3,4-f][1,4]oxazepine-9-carbonitrile], 18 nM. For the molecule `N#Cc1cncc2c1O[C@H]1C[C@@H]2N(C(=O)C23CCCCC2C3)C1` (stereo partly drawn) [Compound 1-78, (2S,5S)-4-(bicyclo[4.1.0]heptane-1-carbonyl)-2,3,4,5-tetrahydro-2,5-methanopyrido[3,4-f][1,4]oxazepine-9-carbonitrile], the 50% inhibitory concentration (IC50) came out at 77 nM.

For the molecule `CC(C)(C(=O)N1C[C@@H]2C[C@H]1c1cncc(C#CC34CC(C(F)(F)F)(C3)C4)c1O2)C(F)F` [Compound 2-114, 3,3-difluoro-2,2-dimethyl-1-((2S,5S)-9-((3-(trifluoromethyl)bicyclo [1.1.1]pentan-1-yl)ethynyl)-2,3-dihydro-2,5-methanopyrido[3,4-f][1,4]oxazepin-4(5H)-yl)propan-1-one], the concentration for half-maximal inhibition (IC50) is 1530 nM. The figure for `C[C@@H]1C2CN(C(=O)C(C)(C)C(F)F)[C@H]1c1cncc(C#N)c1O2` (single isomer, unassigned) [Compound 5-3] is 432 nM. The figure for `COc1ccc(C#Cc2cncc3c2O[C@H]2C[C@@H]3N(C(=O)C(C)(C)C(F)F)C2)cn1` [Compound 2-92, 3,3-difluoro-1-((2S,5S)-9-((6-methoxypyridin-3-yl)ethynyl)-2,3-dihydro-2,5-methanopyrido[3,4-f][1,4]oxazepin-4(5H)-yl)-2,2-dimethylpropan-1-one] is 19 nM; for `O=C(N1C[C@@H]2C[C@H]1c1cncc(C#Cc3ccccc3)c1O2)C12CCC(F)(CC1)C2` [Compound 2-97, (4-Fluorobicyclo[2.2.1]heptan-1-yl)((2S,5S)-9-(phenylethynyl)-2,3-dihydro-2,5-methanopyrido[3,4-f][1,4]oxazepin-4(5H)-yl)methanone] it is 18 nM; for `O=C(N1C[C@@H]2C[C@H]1c1cncc(C#CCn3ccnc3)c1O2)C12CCC(C(F)(F)F)(CC1)C2` [Compound 2-56, ((2S,5S)-9-(3-(1H-imidazol-1-yl)prop-1-yn-1-yl)-2,3-dihydro-2,5-methanopyrido[3,4-f][1,4]oxazepin-4(5H)-yl)(4-(trifluoromethyl)bicyclo [2.2.1]heptan-1-yl)methanone] it is 23 nM. As for `CC(C)(C(=O)N1C[C@@H]2C[C@H]1c1cncc(C#Cc3cnc(C4CC4)nc3)c1O2)C(F)F` [Compound 2-80, 1-((2S,5S)-9-((2-cyclopropylpyrimidin-5-yl)ethynyl)-2,3-dihydro-2,5-methanopyrido[3,4-f][1,4]oxazepin-4(5H)-yl)-3,3-difluoro-2,2-dimethylpropan-1-one], the IC50 was found to be 24 nM. As to `CC(F)(F)C(C)(C)C(=O)N1C[C@@H]2C[C@H]1c1cncc(C#Cc3ccc(F)cc3)c1O2` [Compound 2-123, 3,3-difluoro-1-((25,5S)-9-((4-fluorophenyl)ethynyl)-2,3-dihydro-2,5-methanopyrido[3,4-f][1,4]oxazepin-4(5H)-yl)-2,2-dimethylbutan-1-one], the concentration for half-maximal inhibition (IC50) turned out to be 34 nM. Regarding `O=C(N1C[C@@H]2C[C@H]1c1cncc(C#Cc3ncccn3)c1O2)C12CCC(C(F)(F)F)(CC1)C2` [Compound 2-68, ((2S,5S)-9-(pyrimidin-2-ylethynyl)-2,3-dihydro-2,5-methanopyrido[3,4-f][1,4]oxazepin-4(5H)-yl)(4-(trifluoromethyl)bicyclo [2.2.1]heptan-1-yl)methanone], the half-inhibitory concentration (IC50) amounted to 134 nM. As for `O=C(N1C[C@@H]2C[C@H]1c1cncc(F)c1O2)C12CCC(CC1(F)F)C2` (single isomer, unassigned) [Compound 2-18, (2,2-(S or R)-difluorobicyclo[2.2.1]heptan-1-yl)((28,5S)-9-fluoro-2,3-dihydro-2,5-methanopyrido[3,4-f][1,4]oxazepin-4(5H)-yl)methanone], the 50% inhibitory concentration (IC50) stood at 90 nM.

On to `CC1(C(=O)N2C[C@@H]3C[C@H]2c2cncc(C#N)c2O3)CC1(F)F` (single isomer, unassigned) [Compound 1-29, (2S,5S)-4-[(S or R)-2,2-difluoro-1-methylcyclopropane-1-carbonyl]-2,3,4,5-tetrahydro-2,5-methanopyrido[3,4-f][1,4]oxazepine-9-carbonitrile], for which the half-inhibitory concentration (IC50) amounted to 376 nM. The figure for `Cc1ncc2c(c1C#N)O[C@H]1C[C@@H]2N(C(=O)C(C)(C)C(F)F)C1` [Compound 1-18, (2S,5S)-4-(3,3-difluoro-2,2-dimethylpropanoyl)-8-methyl-2,3,4,5-tetrahydro-2,5-methanopyrido[3,4-f][1,4]oxazepine-9-carbonitrile] is 84 nM; for `O=C(N1C[C@@H]2C[C@H]1c1cncc(Cl)c1O2)C12CCC(CC1)C2` [Compound 2-31, Bicyclo[2.2.1]heptan-1-yl((2S,5S)-9-chloro-2,3-dihydro-2,5-methanopyrido[3,4-f][1,4]oxazepin-4(5H)-yl)methanone] it is 20 nM; for `N#Cc1cncc2c1S[C@H]1C[C@@H]2N(C(=O)C2(C#N)CCCC2)C1` [Compound 4-7, (2S,5S)-4-(1-cyanocyclopentane-1-carbonyl)-2,3,4,5-tetrahydro-2,5-methanopyrido[3,4-f][1,4]thiazepine-9-carbonitrile] it is 27 nM. In the case of `CC(C)(C(=O)N1C[C@@H]2C[C@H]1c1cncc(C#CCCC(F)(F)F)c1O2)C(F)F` [Compound 2-111, 3,3-difluoro-2,2-dimethyl-1-((2S,5S)-9-(5,5,5-trifluoropent-1-yn-1-yl)-2,3-dihydro-2,5-methanopyrido[3,4-f][1,4]oxazepin-4(5H)-yl)propan-1-one], the IC50 amounted to 266 nM. To `CC(C)(CC#N)C(=O)N1C[C@@H]2C[C@H]1c1cncc(C#N)c1O2` [Compound 1-20, (2S,5S)-4-(3-cyano-2,2-dimethylpropanoyl)-2,3,4,5-tetrahydro-2,5-methanopyrido[3,4-f][1,4]oxazepine-9-carbonitrile] belongs 89 nM; to `CC(C)(C)C(=O)N1C[C@@H]2C[C@H]1c1cncc(C#Cc3ccc(OC(F)(F)F)cc3)c1O2` [Compound 2-37, 2,2-dimethyl-1-((2S,5S)-9-((4-(trifluoromethoxy)phenyl)ethynyl)-2,3-dihydro-2,5-methanopyrido[3,4-f][1,4]oxazepin-4(5H)-yl)propan-1-one], 47 nM; to `N#Cc1cncc2c1O[C@H]1C[C@@H]2N(C(=O)C23CCCC2C3(F)F)C1` (single isomer, unassigned) [Compound 1-86, (2S,5S)-4-((1R,5S or 1S,5R)-6,6-difluorobicyclo[3.1.0]hexane-1-carbonyl)-2,3,4,5-tetrahydro-2,5-methanopyrido[3,4-f][1,4]oxazepine-9-carbonitrile], 33 nM. The figure for `CC(F)(F)C1(C(=O)N2C[C@@H]3C[C@H]2c2cncc(C#N)c2O3)CC1` [Compound 1-27, (2S,5S)-4-[1-(1,1-difluoroethyl)cyclopropane-1-carbonyl]-2,3,4,5-tetrahydro-2,5-methanopyrido[3,4-f][1,4]oxazepine-9-carbonitrile] is 221 nM; for `COc1ccc(C#Cc2cncc3c2O[C@H]2C[C@@H]3N(C(=O)C34CCC(C(F)(F)F)(CC3)C4)C2)cc1` [Compound 2-65, ((2S,5S)-9-((4-methoxyphenyl)ethynyl)-2,3-dihydro-2,5-methanopyrido[3,4-f][1,4]oxazepin-4(5H)-yl)(4-(trifluoromethyl)bicyclo [2.2.1]heptan-1-yl)methanone] it is 18 nM.
